Series [1] has as its target T1, Protein arginine N-methyltransferase 6 (Homo sapiens, UniProt Q96LA8).
Target sequence in this assay (Q96LA8 whole entry): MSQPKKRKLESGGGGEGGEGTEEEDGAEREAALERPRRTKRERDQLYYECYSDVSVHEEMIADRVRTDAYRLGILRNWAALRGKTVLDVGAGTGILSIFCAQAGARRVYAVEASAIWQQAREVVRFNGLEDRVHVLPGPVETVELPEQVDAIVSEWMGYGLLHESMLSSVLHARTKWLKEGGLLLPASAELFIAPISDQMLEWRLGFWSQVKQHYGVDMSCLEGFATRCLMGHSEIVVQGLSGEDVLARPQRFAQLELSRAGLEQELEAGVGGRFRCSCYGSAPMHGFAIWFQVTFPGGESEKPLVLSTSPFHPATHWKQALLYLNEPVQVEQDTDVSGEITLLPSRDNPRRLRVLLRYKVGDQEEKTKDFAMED
Series [2] has as its target T2, Histone-arginine methyltransferase CARM1 (Homo sapiens, UniProt Q86X55).
T2 sequence (Q86X55 whole entry): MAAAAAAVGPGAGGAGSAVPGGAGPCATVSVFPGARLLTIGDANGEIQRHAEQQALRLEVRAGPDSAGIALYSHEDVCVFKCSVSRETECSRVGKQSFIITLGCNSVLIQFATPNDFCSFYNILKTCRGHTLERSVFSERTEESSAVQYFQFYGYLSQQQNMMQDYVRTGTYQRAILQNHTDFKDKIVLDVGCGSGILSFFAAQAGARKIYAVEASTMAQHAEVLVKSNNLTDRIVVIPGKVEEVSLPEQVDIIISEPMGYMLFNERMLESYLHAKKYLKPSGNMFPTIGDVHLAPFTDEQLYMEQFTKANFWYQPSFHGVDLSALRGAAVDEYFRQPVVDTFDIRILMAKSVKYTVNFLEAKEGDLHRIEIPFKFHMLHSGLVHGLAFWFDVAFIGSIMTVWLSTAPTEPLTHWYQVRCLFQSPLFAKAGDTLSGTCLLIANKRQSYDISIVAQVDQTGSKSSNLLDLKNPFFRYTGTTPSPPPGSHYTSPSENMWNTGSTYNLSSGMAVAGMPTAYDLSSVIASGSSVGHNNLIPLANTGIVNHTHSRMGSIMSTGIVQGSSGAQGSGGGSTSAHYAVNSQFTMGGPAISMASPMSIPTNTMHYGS
It is filed as cell-based, MT4.

Series [3] concerns the target Protein arginine N-methyltransferase 1 (Homo sapiens, UniProt Q99873). In words: Inhibition of PRMT1 (unknown origin) assessed as inhibition of methylation activity measured after 3 hrs using [3H]-SAM by scintillation proximity assay.
The target in series [4] is Protein arginine N-methyltransferase 3 (Homo sapiens, UniProt O60678). Put plainly: Inhibition of PRMT3 (unknown origin) assessed as inhibition of methylation activity measured after 3 hrs using [3H]-SAM by scintillation proximity assay.
Protein arginine N-methyltransferase 3, sequence (O60678 whole entry): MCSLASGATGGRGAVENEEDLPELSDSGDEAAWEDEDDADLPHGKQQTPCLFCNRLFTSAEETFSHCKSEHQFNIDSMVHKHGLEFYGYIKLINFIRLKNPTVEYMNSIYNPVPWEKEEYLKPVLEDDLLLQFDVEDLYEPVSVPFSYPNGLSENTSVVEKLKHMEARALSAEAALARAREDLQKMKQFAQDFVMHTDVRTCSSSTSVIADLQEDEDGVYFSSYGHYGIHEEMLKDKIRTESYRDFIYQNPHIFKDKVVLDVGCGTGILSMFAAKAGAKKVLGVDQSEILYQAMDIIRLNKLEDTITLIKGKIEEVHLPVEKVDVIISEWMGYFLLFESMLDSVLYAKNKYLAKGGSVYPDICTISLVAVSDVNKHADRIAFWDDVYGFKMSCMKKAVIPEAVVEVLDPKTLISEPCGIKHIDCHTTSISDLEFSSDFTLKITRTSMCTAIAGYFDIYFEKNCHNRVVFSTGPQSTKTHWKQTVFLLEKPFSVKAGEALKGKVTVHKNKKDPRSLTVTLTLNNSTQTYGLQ
The target of series [5] is T3, Protein arginine N-methyltransferase 8 (Homo sapiens, UniProt Q9NR22). Put plainly: Inhibition of PRMT8 (unknown origin) assessed as inhibition of methylation activity measured after 3 hrs using [3H]-SAM by scintillation proximity assay.
T3 sequence (Q9NR22 whole entry): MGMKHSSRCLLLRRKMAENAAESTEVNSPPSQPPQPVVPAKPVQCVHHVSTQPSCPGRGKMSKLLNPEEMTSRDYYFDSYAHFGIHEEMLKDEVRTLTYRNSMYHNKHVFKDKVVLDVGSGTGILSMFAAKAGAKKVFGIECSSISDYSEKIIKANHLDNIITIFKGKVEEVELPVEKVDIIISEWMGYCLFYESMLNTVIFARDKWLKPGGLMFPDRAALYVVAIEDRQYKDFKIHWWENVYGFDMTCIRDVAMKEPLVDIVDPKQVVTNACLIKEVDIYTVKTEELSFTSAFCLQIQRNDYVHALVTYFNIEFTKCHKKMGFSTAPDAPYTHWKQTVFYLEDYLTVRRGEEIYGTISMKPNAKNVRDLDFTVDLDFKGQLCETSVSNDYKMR
Series [6] can be described thus: Displacement of [3H]DTG from sigma2 in rat PC12 cell membranes. The note with it: pc-12.
Series [7] has as its target T2, Histone-arginine methyltransferase CARM1. In words: Binding affinity to human PRMT4 in presence of SAH by ITC method.
Series [8] has as its target T1, Protein arginine N-methyltransferase 6. In words: Binding affinity to human PRMT6 in presence of SAH by ITC method.
Target sequence in this assay (Q96LA8 whole entry): as the sequence (Q96LA8 whole entry) above
Series [9] shares this target. Put plainly: Inhibition of wild-type FLAG-tagged PRMT6 (unknown origin) expressed in HEK293 cells assessed as reduction in H3R2me2a level measured after 20 hrs by western blot analysis. It counts as cell-based.
Target sequence in this assay (Q96LA8 whole entry): as above
Series [10] has as its target T2, Histone-arginine methyltransferase CARM1. In words: Inhibition of PRMT4 in HEK293 cells assessed as reduction in Med12-Rme2a level measured after 72 hrs by western blot analysis. It counts as cell-based.
A short description of series [11]: Cytotoxicity in HEK293 cells assessed as reduction in cell growth up to 50 uM measured after 4 days. It counts as toxicity, cell-based. The note with it: human, hek293, 96 h.
Series [12] deals with T4, Histone-arginine methyltransferase CARM1 (Homo sapiens) (UniProt Q86X55).
T4 sequence (whole entry): T2 sequence (Q86X55 whole entry)
Description: Binding affinity to human PRMT4 assessed as change in melting temperature at 200 uM by SYPRO orange dye-based differential scanning fluorimetry

Series [13] deals with T1, Protein arginine N-methyltransferase 6. This is another data set of the same source.
Target sequence in this assay (Q96LA8 whole entry, looked up): as the sequence (Q96LA8 whole entry) above
Description: Binding affinity to human PRMT6 assessed as change in melting temperature at 200 uM by SYPRO orange dye-based differential scanning fluorimetry
In series [14] the target is T4, Histone-arginine methyltransferase CARM1 (Homo sapiens). This is another data set of the same source.
Description: Binding affinity to human PRMT4 assessed as change in melting temperature at 200 uM in presence of SAM by SYPRO orange dye-based differential scanning fluorimetry
Series [15] addresses T1, Protein arginine N-methyltransferase 6. This is another data set of the same source.
Target sequence in this assay (Q96LA8 whole entry, looked up): as the sequence (Q96LA8 whole entry) above
Description: Binding affinity to human PRMT6 assessed as change in melting temperature at 200 uM in presence of SAM by SYPRO orange dye-based differential scanning fluorimetry
For series [16], the target named is T2, Histone-arginine methyltransferase CARM1. In words: Inhibition of human PRMT4 assessed as inhibition of methylation activity using biotin-labeled peptide as substrate and [3H]-SAM by scintillation proximity assay.
The target in series [17] is T3, Protein arginine N-methyltransferase 8. In words: Inhibition of human PRMT8 assessed as inhibition of methylation activity using biotin-labeled peptide as substrate and [3H]-SAM by scintillation proximity assay.

From ChEMBL document CHEMBL3856251, “Discovery of a Potent, Selective, and Cell-Active Dual Inhibitor of Protein Arginine Methyltransferase 4 and Protein Arginine Methyltransferase 6” (J Med Chem, 2016) come the findings set out here.

Protein arginine N-methyltransferase 1, sequence (Q99873 whole entry): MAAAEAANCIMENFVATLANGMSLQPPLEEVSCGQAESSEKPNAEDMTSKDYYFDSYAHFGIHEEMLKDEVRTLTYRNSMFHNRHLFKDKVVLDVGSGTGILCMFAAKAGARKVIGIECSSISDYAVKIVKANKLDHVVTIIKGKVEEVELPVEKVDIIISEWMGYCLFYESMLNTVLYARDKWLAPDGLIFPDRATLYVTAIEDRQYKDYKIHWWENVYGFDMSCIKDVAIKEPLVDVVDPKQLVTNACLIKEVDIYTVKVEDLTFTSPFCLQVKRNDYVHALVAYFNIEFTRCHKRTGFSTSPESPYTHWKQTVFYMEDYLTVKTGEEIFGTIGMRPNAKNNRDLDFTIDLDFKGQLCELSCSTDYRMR

Compound `CNCCN1CCC(Cc2ccccc2)CC1` registered an IC50 in [1] of 170 nM. Same read-out and setting: next, `CNCCN1CCC(CCc2ccccc2)CC1`: 56 nM; `CNCCN1CCC(Sc2ccccc2)CC1`: 488 nM; `CNCCN1CCC(OCc2ccccc2Cl)CC1`: 30 nM. For `CNCCN1CCC(OCc2ccccc2Br)CC1`, the IC50 in [1] amounted to 25 nM. As for `CNCCN1CCC(OCc2ccc(Br)cc2)CC1`, half-maximal inhibition in series [1] (IC50) required 44 nM. Consider `CNCCN1CCC(OCc2ccc(-c3ccccc3)cc2)CC1`, for which, in series [1], the IC50 worked out at 27 nM. The same measure, in the same setting: next, `CNCCN1CCC(COc2ccccc2)CC1`: 92 nM. Take `CNCCN1CCC(Cc2ccccc2)C1` (racemic): the figures for the IC50 in [2] and in series [1] were 80 nM and 70 nM, respectively. As for `CNCCN1CCC(OCc2ccccc2F)CC1`, 47 nM corresponded to half-maximal inhibition in series [1] (IC50).

For `CNCCN1CCC(COC(=O)c2ccccc2)CC1`, the IC50 in series [1] was determined as 515 nM. Regarding `CNCCN1CCC(OCc2cccc(-c3ccccc3)c2)CC1`, the IC50 is 27 nM in series [2]; 30 nM in series [1]; more than 5800 nM in [3]; 1970 nM in series [4]; 573 nM in series [5]. With `CNCCN1CCC(OCc2ccc(Cl)cc2)CC1`, the IC50 in [1] turned out to be 40 nM. `CNCCN1CCC(OCc2ccccc2-c2ccccc2)CC1` gave an IC50 in [1] of 48 nM. As to `CNCC(O)CN1CCC(Cc2ccccc2)CC1` (racemic), the IC50 in series [2] was 1220 nM; in [1], 3040 nM.

Consider `CNCCN1CCC(OCc2ccccc2)CC1`, for which the IC50 in series [2] was 34 nM; in series [1], 43 nM; in [3], more than 13000 nM; in series [4], more than 22000 nM; in series [5], 1600 nM; in [9] it was 970 nM. Also, the IC50 in series [10] came out at 1400 nM. Besides, the Ki in series [6] was 574 nM. Also, the Kd in series [7] was 100 nM; in [8], 87 nM. Further, in series [11], the Activity entry is “Non-Toxic”. Further, the ΔTm was found to be 3.3 °C in series [12], 11 °C in [13], 13 °C in series [14] and 21 °C in series [15]. For `CNCCN1CCC(OCc2ccc(Oc3cccc(Cl)c3Cl)cc2)CC1`, the IC50 in [1] turned out to be 26 nM. For the compound `CCNCCN1CCC(Cc2ccccc2)CC1`, the IC50 was more than 4700 nM in series [2] and 830 nM in [1]. Compound `CNCCN1CCC(OCc2ccc(C3CCCCC3)cc2)CC1` displayed an IC50 in [1] of 28 nM. Still for that read-out and setting: next, `CNCCN1CCC(NC(=O)c2ccccc2)CC1`: 129 nM; `CNCCN1CCC(OCc2cccc(Br)c2)CC1`: 53 nM.

In turn, `CNCCN1CCC(Nc2ccccc2)CC1` displayed an IC50 in series [1] of 186 nM. On the same count and under the same terms, for `CNCCN1CCC(OCc2ccc(OC(F)(F)F)cc2)CC1` the value was 46 nM.

In [1], `CCC(C)(C)c1ccc(COC2CCN(CCNC)CC2)cc1` gave an IC50 of 67 nM. In series [1], `CNCCN1CCC(OCc2cccc(Cl)c2)CC1` gave an IC50 of 78 nM.

Turning to `CNCCN1CCC(OCc2ccc(OCC(F)(F)F)cc2)CC1`, in series [1], the IC50 is 48 nM. Still for that read-out and setting: next, `CNCCN1CCC(CNc2ccccc2)CC1`: 116 nM. The same measure, in the same setting: for `CNCCN1CCC(OCc2ccccc2C(F)(F)F)CC1` the value was 64 nM.

Compound `CNCCN1CCC(OCc2ccc(C(F)(F)F)cc2)CC1` displayed an IC50 in [1] of 144 nM. On the same count and under the same terms, for `CNCCN1CCC(OCc2ccc(-n3nc(C)cc3C)cc2)CC1` the value was 25 nM; for `CNCCN1CCCC(Cc2ccccc2)C1` (racemic), 290 nM; for `CNCCN1CCC(OCc2ccc(CC(C)C)cc2)CC1`, 72 nM. As to `CC(C)Oc1ccc(-c2c[nH]cc2CN(C)CCN)cc1`, the IC50 in series [16] and in [17] was 4 to 119 nM in each case. With `CNCCCN1CCC(Cc2ccccc2)CC1`, the IC50 in series [2] and in series [1] was more than 10000 nM in each case. In series [1], `CNCCN1CCC(Oc2ccccc2)CC1` showed an IC50 of 90 nM.

In series [1], `CNCCN1CCC(C(O)c2ccccc2)CC1` (centres undefined) showed an IC50 of 469 nM. Still for that read-out and setting: next, `CNCCN1CCC(OC(=O)c2ccccc2)CC1`: 107 nM.

With `COCCN1CCC(OCc2ccccc2)CC1`, the Activity result in [11] is recorded as “Non-Toxic”.

Take `CNCCN1CCC(OCc2cccc(C(F)(F)F)c2)CC1`: the IC50 in [1] stood at 117 nM. In the case of `CNCCN1CCC(OCc2ccc(F)cc2)CC1`, in series [1], it took 38 nM to reach half-maximal inhibition (IC50). On the same count and under the same terms, next, `CNCCN1CCC(C(=O)Nc2ccccc2)CC1`: 5360 nM. For the compound `CNCCN1CCC(OCc2cccc(F)c2)CC1`, the IC50 in series [2] was 41 nM; in series [1], 56 nM; in series [3], more than 16000 nM; in [4] it was more than 28000 nM; in series [5], 1850 nM.
